From ChEMBL document CHEMBL1201862, “PubChem BioAssay data set” (2004)
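Protocol summary: plate cells (96-well), add compound at 5 concentrations, incubate 48 h, interpolate endpoints linearly. GI50 marks 50% less growth.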 Active and inactive are the calls of the source. No stated cut-off is given here; in the data, active = GI50 up to about 1.1 µM and inactive = higher.

How the values were obtained:
Assay in all cases: NCI-60 cell line screen, 48 h
786-0 = tested on: 786-0
A498 = tested on: A498
A549 = tested on: A549
ACHN = tested on: ACHN
BT-549 = tested on: BT-549
CAKI-1 = tested on: CAKI-1
CCRF-CEM = tested on: CCRF-CEM
COLO 205 = tested on: COLO 205
DU-145 = tested on: DU-145
EKVX = tested on: EKVX
HCC 2998 = tested on: HCC 2998
HCT-116 = tested on: HCT-116
HCT-15 = tested on: HCT-15
HL-60 = tested on: HL-60
HOP-62 = tested on: HOP-62
HOP-92 = tested on: HOP-92
HT-29 = tested on: HT-29
Hs-578T = tested on: Hs-578T
IGROV-1 = tested on: IGROV-1
K562 = tested on: K562
KM12 = tested on: KM12
LOX IMVI = tested on: LOX IMVI
M14 = tested on: M14
MCF7 = tested on: MCF7
MDA-MB-231 = tested on: MDA-MB-231
MDA-MB-435 = tested on: MDA-MB-435
MDA-N = tested on: MDA-N
MOLT-4 = tested on: MOLT-4
Malme-3M = tested on: Malme-3M
NCI-H226 = tested on: NCI-H226
NCI-H23 = tested on: NCI-H23
NCI-H460 = tested on: NCI-H460
NCI-H522 = tested on: NCI-H522
NCI/ADR-RES = tested on: NCI/ADR-RES
OVCAR-3 = tested on: OVCAR-3
OVCAR-4 = tested on: OVCAR-4
OVCAR-5 = tested on: OVCAR-5
OVCAR-8 = tested on: OVCAR-8
PC-3 = tested on: PC-3
RPMI-8226 = tested on: RPMI-8226
RXF 393 = tested on: RXF 393
SF-268 = tested on: SF-268
SF-295 = tested on: SF-295
SF-539 = tested on: SF-539
SK-MEL-28 = tested on: SK-MEL-28
SK-MEL-2 = tested on: SK-MEL-2
SK-MEL-5 = tested on: SK-MEL-5
SK-OV-3 = tested on: SK-OV-3
SN12C = tested on: SN12C
SNB-19 = tested on: SNB-19
SNB-75 = tested on: SNB-75
SR = tested on: SR
SW-620 = tested on: SW-620
T47D = tested on: T47D
TK-10 = tested on: TK-10
U-251 = tested on: U-251
UACC-257 = tested on: UACC-257
UACC-62 = tested on: UACC-62
UO-31 = tested on: UO-31

SMILES: CC/C(Cl)=N\OC(=O)Nc1ccc(C#N)cc1
- GI50 (786-0): 11.2 µM (inactive)
- GI50 (A498): 16.6 µM (inactive)
- GI50 (A549): 18.2 µM (inactive)
- GI50 (ACHN): 14.3 µM (inactive)
- GI50 (BT-549): 15.1 µM (inactive)
- GI50 (CAKI-1): 5.04 µM (inactive)
- GI50 (CCRF-CEM): 1.63 µM (inactive)
- GI50 (COLO 205): 1.82 µM (inactive)
- GI50 (DU-145): 16 µM (inactive)
- GI50 (EKVX): 13.3 µM (inactive)
- GI50 (HCC 2998): 16.4 µM (inactive)
- GI50 (HCT-116): 14.6 µM (inactive)
- GI50 (HCT-15): 7.93 µM
- GI50 (HL-60): 2.01 µM (inactive)
- GI50 (HOP-62): 17.2 µM (inactive)
- GI50 (HOP-92): 3.15 µM (inactive)
- GI50 (HT-29): 18.6 µM (inactive)
- GI50 (Hs-578T): 21.9 µM (inactive)
- GI50 (IGROV-1): 16.4 µM (inactive)
- GI50 (K562): 1.86 µM (inactive)
- GI50 (KM12): 17.1 µM (inactive)
- GI50 (LOX IMVI): 4.47 µM (inactive)
- GI50 (M14): 12.3 µM (inactive)
- GI50 (MCF7): 15.1 µM (inactive)
- GI50 (MDA-MB-231): 15.3 µM (inactive)
- GI50 (MDA-MB-435): 15.6 µM (inactive)
- GI50 (MDA-N): 16.3 µM (inactive)
- GI50 (MOLT-4): 2.28 µM (inactive)
- GI50 (Malme-3M): 4.11 µM (inactive)
- GI50 (NCI-H226): 16.6 µM (inactive)
- GI50 (NCI-H23): 17.2 µM (inactive)
- GI50 (NCI-H460): 19.5 µM (inactive)
- GI50 (NCI-H522): 1.48 µM (inactive)
- GI50 (NCI/ADR-RES): 13.3 µM (inactive)
- GI50 (OVCAR-3): 18.5 µM (inactive)
- GI50 (OVCAR-4): 8.09 µM (inactive)
- GI50 (OVCAR-5): 15.9 µM (inactive)
- GI50 (OVCAR-8): 16.9 µM (inactive)
- GI50 (PC-3): 16.7 µM (inactive)
- GI50 (RPMI-8226): 2.28 µM (inactive)
- GI50 (RXF 393): 8.75 µM (inactive)
- GI50 (SF-268): 18.1 µM (inactive)
- GI50 (SF-295): 18.7 µM (inactive)
- GI50 (SF-539): 16.6 µM (inactive)
- GI50 (SK-MEL-28): 18 µM (inactive)
- GI50 (SK-MEL-2): 15.9 µM (inactive)
- GI50 (SK-MEL-5): 12.9 µM (inactive)
- GI50 (SK-OV-3): 4.94 µM (inactive)
- GI50 (SN12C): 16.4 µM (inactive)
- GI50 (SNB-19): > 100 µM (inactive)
- GI50 (SNB-75): 14.9 µM (inactive)
- GI50 (SR): 3.13 µM (inactive)
- GI50 (SW-620): 3.28 µM (inactive)
- GI50 (T47D): 10.8 µM (inactive)
- GI50 (TK-10): 16.4 µM (inactive)
- GI50 (U-251): 17.1 µM (inactive)
- GI50 (UACC-257): 16.1 µM (inactive)
- GI50 (UACC-62): 15 µM (inactive)
- GI50 (UO-31): 17.2 µM (inactive)

SMILES: O=c1n(-c2ccc(Cl)c(Cl)c2)c(=O)n(-c2ccc(Cl)c(Cl)c2)c(=O)n1-c1ccc(Cl)c(Cl)c1
- GI50 (786-0): 2.78 µM (inactive)
- GI50 (A498): 2.73 µM (inactive)
- GI50 (A549): 2.09 µM (inactive)
- GI50 (ACHN): 2.39 µM (inactive)
- GI50 (BT-549): 2.88 µM (inactive)
- GI50 (CAKI-1): 3.49 µM (inactive)
- GI50 (CCRF-CEM): 1.15 µM (inactive)
- GI50 (COLO 205): 0.719 µM (active)
- GI50 (DU-145): 4.01 µM (inactive)
- GI50 (EKVX): 3.5 µM (inactive)
- GI50 (HCC 2998): 2.2 µM (inactive)
- GI50 (HCT-116): 1.2 µM (inactive)
- GI50 (HCT-15): 1.58 µM
- GI50 (HL-60): 2.89 µM (inactive)
- GI50 (HOP-62): 3.67 µM (inactive)
- GI50 (HOP-92): 0.0144 µM (active)
- GI50 (HT-29): 2.59 µM (inactive)
- GI50 (Hs-578T): 2.96 µM (inactive)
- GI50 (IGROV-1): 3.21 µM (inactive)
- GI50 (K562): 2.06 µM (inactive)
- GI50 (KM12): 2.91 µM (inactive)
- GI50 (LOX IMVI): 2.55 µM (inactive)
- GI50 (M14): 3.2 µM (inactive)
- GI50 (MCF7): 1.82 µM (inactive)
- GI50 (MDA-MB-231): 1.8 µM (inactive)
- GI50 (MDA-MB-435): 3.93 µM (inactive)
- GI50 (MDA-N): 2.9 µM (inactive)
- GI50 (MOLT-4): 1.87 µM (inactive)
- GI50 (Malme-3M): 3.3 µM (inactive)
- GI50 (NCI-H226): 2.82 µM (inactive)
- GI50 (NCI-H23): 1.5 µM (inactive)
- GI50 (NCI-H460): 1.59 µM (inactive)
- GI50 (NCI-H522): 3.52 µM (inactive)
- GI50 (NCI/ADR-RES): 3.1 µM (inactive)
- GI50 (OVCAR-3): 2.99 µM (inactive)
- GI50 (OVCAR-4): 3.94 µM (inactive)
- GI50 (OVCAR-5): 3.63 µM (inactive)
- GI50 (OVCAR-8): 3.54 µM (inactive)
- GI50 (PC-3): 0.703 µM (active)
- GI50 (RPMI-8226): 0.558 µM (active)
- GI50 (RXF 393): 3.21 µM (inactive)
- GI50 (SF-268): 2.45 µM (inactive)
- GI50 (SF-295): 2.47 µM (inactive)
- GI50 (SF-539): 0.769 µM (active)
- GI50 (SK-MEL-28): 4.16 µM (inactive)
- GI50 (SK-MEL-2): 2.15 µM (inactive)
- GI50 (SK-MEL-5): 1.9 µM (inactive)
- GI50 (SK-OV-3): 2.11 µM (inactive)
- GI50 (SN12C): 3.09 µM (inactive)
- GI50 (SNB-19): 5.01 µM (inactive)
- GI50 (SNB-75): 2.53 µM (inactive)
- GI50 (SR): 3.55 µM (inactive)
- GI50 (SW-620): 3.15 µM (inactive)
- GI50 (T47D): 1.57 µM (inactive)
- GI50 (TK-10): 5.53 µM (inactive)
- GI50 (U-251): 3.71 µM (inactive)
- GI50 (UACC-257): 0.736 µM (active)
- GI50 (UACC-62): 4.27 µM (inactive)
- GI50 (UO-31): 2.76 µM (inactive)
